Laboratory results taken from PubChem BioAssay (NCI).
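Growth conditions: 96-well plates. Treatment: test compound, 48 hours, 5 concentrations. Analysis: linear interpolation between bracketing concentrations; unreached endpoints set to highest concentration. TGI denotes the concentration required for complete inhibition of growth.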 Where a SMILES comes first, the peptide text is derived from it. [ ]: non-standard residue; d: D form. Ac5c = NC1(C(=O)O)CCCC1

Columns and labels:
Assay in all cases: NCI anticancer screen, dose series, 48 h
[1] = test system: HL-60(TB) leukemia
[2] = test system: HCT-15 colon
[3] = test system: EKVX NSCLC
[4] = test system: SK-MEL-2 melanoma
[5] = test system: NCI/ADR-RES ovarian
[6] = test system: CCRF-CEM leukemia
[7] = test system: IGROV1 ovarian
[8] = test system: KM12 colon
[9] = test system: SF-268 CNS
[10] = test system: CAKI-1 renal
[11] = test system: SF-295 CNS
[12] = test system: 786-0 renal
[13] = test system: UACC-257 melanoma
[14] = test system: MALME-3M melanoma
[15] = test system: HT29 colon
[16] = test system: NCI-H522 lung
[17] = test system: MDA-MB-231 breast
[18] = test system: BT-549 breast
[19] = test system: HOP-92 NSCLC
[20] = test system: SK-MEL-28 melanoma
[21] = test system: SK-OV-3 ovarian
[22] = test system: NCI-H226 lung
[23] = test system: COLO 205 colon
[24] = test system: U251 CNS
[25] = test system: SF-539 CNS
[26] = test system: HOP-62 NSCLC
[27] = test system: RXF 393 renal
[28] = test system: A549 NSCLC
[29] = test system: ACHN renal
[30] = test system: T-47D breast
[31] = test system: RPMI-8226 leukemia
[32] = test system: HCT-116 colon
[33] = test system: SNB-19 CNS
[34] = test system: PC-3 prostate
[35] = test system: HS 578T breast
[36] = test system: UO-31 renal
[37] = test system: SR leukemia
[38] = test system: MOLT-4 leukemia
[39] = test system: SW-620 colon
[40] = test system: LOX IMVI melanoma
[41] = test system: OVCAR-4 ovarian
[42] = test system: HCC-2998 colon
[43] = test system: NCI-H460 lung
[44] = test system: DU-145 prostate
[45] = test system: TK-10 renal
[46] = test system: NCI-H23 lung
[47] = test system: OVCAR-8 ovarian
[48] = test system: MDA-MB-435
[49] = test system: OVCAR-3 ovarian
[50] = test system: MDA-N
[51] = test system: K-562 leukemia
[52] = test system: MCF7 breast
[53] = test system: UACC-62 melanoma
[54] = test system: SN12C renal
[55] = test system: OVCAR-5 ovarian
[56] = test system: SK-MEL-5 melanoma
[57] = test system: A498 renal
[58] = test system: M14 melanoma
[59] = test system: SNB-75 CNS

Measured: TGI

O=C1C=CC(=O)N1n1c(Cc2ccccc2)n[nH]c1=O
> 100 µM: [1] | [2] | [3] | [4] | [5] | [6] | [7] | [8] | [9] | [10] | [11] | [12] | [13] | [14] | [15] | [16] | [17] | [18] | [19] | [20] | [21] | [22] | [23] | [24] | [25] | [26] | [27] | [28] | [29] | [30] | [31] | [32] | [33] | [34] | [35] | [36] | [37] | [38] | [39] | [40] | [41] | [42] | [43] | [44] | [45] | [46] | [47] | [48] | [49] | [50] | [51] | [52] | [53] | [54] | [55] | [56] | [57]

NCC(=O)NC1(C(=O)O)CCCC1 (H-Gly-[Ac5c]-OH)
> 100 µM: [2] | [3] | [4] | [5] | [7] | [8] | [9] | [10] | [11] | [12] | [13] | [14] | [15] | [16] | [17] | [58] | [18] | [19] | [20] | [21] | [23] | [24] | [25] | [26] | [27] | [28] | [29] | [30] | [31] | [32] | [33] | [34] | [35] | [59] | [36] | [37] | [38] | [39] | [40] | [41] | [42] | [43] | [44] | [45] | [46] | [47] | [48] | [49] | [50] | [51] | [52] | [53] | [54] | [55] | [56] | [57]

CCCCC/C=C1\CC(CO)(COC(=O)CC(C(C)C)C(C)C)OC1=O (stereo not drawn)
44.9 µM: [44]
28.8 µM: [28]
27.7 µM: [55]
33.9 µM: [27]
44.4 µM: [32]
46.5 µM: [41]
20.9 µM: [19]
27.2 µM: [22]
38.9 µM: [2]
44.2 µM: [51]
35.5 µM: [9]
32.1 µM: [47]
36.8 µM: [45]
18.3 µM: [35]
28.3 µM: [8]
24.3 µM: [10]
36.4 µM: [46]
45.6 µM: [13]
39 µM: [53]
32.4 µM: [58]
49 µM: [4]
55.1 µM: [30]
54.1 µM: [38]
> 100 µM: [6] | [37] | [39] | [43]
15.3 µM: [23]
21.1 µM: [26]
39.3 µM: [52]
27.5 µM: [34]
31.6 µM: [24]
32.3 µM: [49]
31 µM: [18]
33.6 µM: [16]
36.2 µM: [20]
31.9 µM: [14]
47 µM: [5]
32.6 µM: [42]
38.7 µM: [21]
33.7 µM: [57]
30.3 µM: [3] | [12] | [33]
22.9 µM: [56]
28.6 µM: [36]
26.8 µM: [59]
20 µM: [11]
31.8 µM: [7] | [54]
26.4 µM: [50]
40.1 µM: [15]
28.7 µM: [29]
40.2 µM: [17]
22 µM: [48]
